According to patent US20220087996A1, “Histone acetylase p300 inhibitor and use thereof” (HINOVA PHARMACEUTICALS INC., priority 2018, published 2022):
Where two headings read alike, the source gives them in different places.

Experiments:
CWR22RV1 cells = assay: Inhibition of proliferation of CWR22RV1 cells (CCK-8); format: cell-based, human; conditions: Homo sapiens, CWR22Rv1, 144 h, 6 days culture
In short: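 Proliferation read-out was CCK-8 absorbance at 450 nm after 2.5 h, following 6-day culture with compound. Each well held 1500 CWR22RV1 cells; the 3-fold, 9-point series started at a final 10 μM in 0.1% DMSO. Dose-response-inhibition fit gave the IC50.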

VCAP = assay: Inhibition of proliferation of VCAP cells; format: cell-based; conditions: Homo sapiens; Prostate cancer cell line VCAP; read-out: IC50 against VCAP
Method: (§1) 1) CWR22RV1 cells were subcultured in cell culture medium, and the cells in good growth condition were seeded in a 96-well plate, 80 μL for each well, and the cell number in each well was 1500. The plate was incubated overnight in a 37° C., 5% CO2 cell incubator. 2) The drug was prepared as 30 mM stock solution with dimethyl sulfoxide (DMSO). Prior to use, the stock solution was diluted 3 times with DMSO, and then further diluted as 3-fold gradient to obtain 9 concentration gradients. Then, each concentration of compound was diluted 200 times with the culture solution (ensuring that the DMSO concentration in the culture system was 0.1%), and two replicate wells were set for each concentration. 20 μL of diluted compound solution was added to the cell culture well (with final concentrations of 10 μM, 3.3 μM. 1.1 μM . . . ), and the plate was gently shaken to mix. In addition, 3 negative control wells containing only cells and 3 blank control wells containing only culture medium were included (6 wells were each added 20 μL DMSO diluted 200 times with culture medium). 2. Result detection: (1) After culturing for 6 days, 10 μL CCK-8 was added to each well, and the plate was continually cultured in a 37° C., 5% CO2 cell incubator for 2.5 h. (2) The absorbance (OD value) was detected at 450 nm using a multifunctional microplate reader. (3) The data were analyzed by Dose-response-inhibition equation in the software GraphPad Prism6, and the IC50 value was obtained.
(§2) Using the same method as Experimental example 2, CWR22RV1 cells were replaced with tumor cells in Table 3, and the IC50 (nM) of the compound according to the present invention against the activity of these tumor cells was tested and calculated.

LNCAP = assay: Inhibition of proliferation of LNCAP cells; format: cell-based; conditions: Homo sapiens; Prostate cancer cell line LNCAP; read-out: IC50 against LNCAP
Method: as §1, §2

MOLT-4 = assay: Inhibition of proliferation of MOLT-4 cells; format: cell-based; conditions: Homo sapiens; Leukemia cell line MOLT-4; read-out: IC50 against MOLT-4
Method: as §1, §2

HEL = assay: Inhibition of proliferation of HEL cells; format: cell-based; conditions: Homo sapiens; Leukemia cell line HEL; read-out: IC50 against HEL
Method: as §1, §2

ATN-1 = assay: Inhibition of proliferation of ATN-1 cells; format: cell-based; conditions: Homo sapiens; Leukemia cell line ATN-1; read-out: IC50 against ATN-1
Method: as §1, §2

MOLM-16 = assay: Inhibition of proliferation of MOLM-16 cells; format: cell-based; conditions: MOLM16; Leukemia cell line MOLM-16; read-out: IC50 against MOLM-16
Method: as §1, §2

OCI-AML3 = assay: Inhibition of proliferation of OCI-AML3 cells; format: cell-based; conditions: Homo sapiens, OCI-AML-3; Leukemia cell line OCI-AML3; read-out: IC50 against OCI-AML3
Method: as §1, §2

MT-2 = assay: Inhibition of proliferation of MT-2 cells; format: cell-based; conditions: Homo sapiens, MT2; Leukemia cell line MT-2; read-out: IC50 against MT-2
Method: as §1, §2

Pfeiffer = assay: Inhibition of proliferation of Pfeiffer cells; format: cell-based; conditions: Homo sapiens; Lymphoma cell line Pfeiffer; read-out: IC50 against Pfeiffer
Method: as §1, §2

KARPAS-422 = assay: Inhibition of proliferation of KARPAS-422 cells; format: cell-based; conditions: Homo sapiens; Lymphoma cell line KARPAS-422; read-out: IC50 against KARPAS-422
Method: as §1, §2

Z-138 = assay: Inhibition of proliferation of Z-138 cells; format: cell-based; conditions: Homo sapiens; Lymphoma cell line Z-138; read-out: IC50 against Z-138
Method: as §1, §2

RL = assay: Inhibition of proliferation of RL cells; format: cell-based; conditions: Homo sapiens; Lymphoma cell line RL; read-out: IC50 against RL
Method: as §1, §2

MM.1R = assay: Inhibition of proliferation of MM.1R cells; format: cell-based; conditions: Lymphoma cell line MM.1R; read-out: IC50 against MM.1R
Method: as §1, §2

MAVER-1 = assay: Inhibition of proliferation of MAVER-1 cells; format: cell-based; conditions: Homo sapiens, Maver1; Lymphoma cell line MAVER-1; read-out: IC50 against MAVER-1
Method: as §1, §2

KMS-12-PE = assay: Inhibition of proliferation of KMS-12-PE cells; format: cell-based; conditions: Homo sapiens; Lymphoma cell line KMS-12-PE; read-out: IC50 against KMS-12-PE
Method: as §1, §2

MDA-MB-453 = assay: Inhibition of proliferation of MDA-MB-453 cells; format: cell-based; conditions: Homo sapiens; Breast cancer cell line MDA-MB-453; read-out: IC50 against MDA-MB-453
Method: as §1, §2

BT-474 = assay: Inhibition of proliferation of BT-474 cells; format: cell-based; conditions: Homo sapiens; Breast cancer cell line BT-474; read-out: IC50 against BT-474
Method: as §1, §2

DU4475 = assay: Inhibition of proliferation of DU4475 cells; format: cell-based; conditions: Homo sapiens, DU-4475; Breast cancer cell line DU4475; read-out: IC50 against DU4475
Method: as §1, §2

HCC1428 = assay: Inhibition of proliferation of HCC1428 cells; format: cell-based; conditions: Homo sapiens; Breast cancer cell line HCC1428; read-out: IC50 against HCC1428
Method: as §1, §2

EVSA-T = assay: Inhibition of proliferation of EVSA-T cells; format: cell-based; conditions: Homo sapiens; Breast cancer cell line EVSA-T; read-out: IC50 against EVSA-T
Method: as §1, §2

KMS-20 = assay: Inhibition of proliferation of KMS-20 cells; format: cell-based; conditions: Multiple myeloma cell line KMS-20; read-out: IC50 against KMS-20
Method: as §1, §2

KMS-11 = assay: Inhibition of proliferation of KMS-11 cells; format: cell-based; conditions: Homo sapiens; Multiple myeloma cell line KMS-11; read-out: IC50 against KMS-11
Method: as §1, §2

MM.1S = assay: Inhibition of proliferation of MM.1S cells; format: cell-based; conditions: Homo sapiens, MM1.S; Multiple myeloma cell line MM.1S; read-out: IC50 against MM.1S
Method: as §1, §2

NCI-H929 = assay: Inhibition of proliferation of NCI-H929 cells; format: cell-based; conditions: Homo sapiens; Multiple myeloma cell line NCI-H929; read-out: IC50 against NCI-H929
Method: as §1, §2

OPM-2 = assay: Inhibition of proliferation of OPM-2 cells; format: cell-based; conditions: Homo sapiens; Multiple myeloma cell line OPM-2; read-out: IC50 against OPM-2
Method: as §1, §2

[1] = read-out: IC50 against CWR22RV1 cells
[2] = read-out: IC50 against CWR22RV1 cells (text)

| SMILES | IC50 (CWR22RV1 cells; [1]) [µM] | IC50 (CWR22RV1 cells; [2]) [µM] | IC50 (VCAP) [µM] | IC50 (LNCAP) [µM] | IC50 (MOLT-4) [µM] | IC50 (HEL) [µM] | IC50 (ATN-1) [µM] | IC50 (MOLM-16) [µM] | IC50 (OCI-AML3) [µM] | IC50 (MT-2) [µM] | IC50 (Pfeiffer) [µM] | IC50 (KARPAS-422) [µM] | IC50 (Z-138) [µM] | IC50 (RL) [µM] | IC50 (MM.1R) [µM] | IC50 (MAVER-1) [µM] | IC50 (KMS-12-PE) [µM] | IC50 (MDA-MB-453) [µM] | IC50 (BT-474) [µM] | IC50 (DU4475) [µM] | other results |
| --- | --- | --- | --- | --- | --- | --- | --- | --- | --- | --- | --- | --- | --- | --- | --- | --- | --- | --- | --- | --- | --- |
| CNC(=O)Nc1ccc2c(c1)CC[C@@]21OC(=O)N(CC(=O)N2C(C)CC[C@H]2c2cc(F)c(F)c(F)c2)C1=O (stereo in doubt) [Example 205, 1-((R)-3′-(2-((2S,5R)-2-(3,4,5-trifluorophenyl)-5-methylpyrrolidin-1-yl)-2-oxoethyl)-2′,4′-dioxo-2,3-dihydrospiro[indene-1,5′-oxazolidine]-5-yl)-3-methylurea] | ≤ 0.5 | ≤ 0.5 | ≤ 0.5 | ≤ 0.5 | ≤ 0.5 | 0.5 to 2 | ≤ 0.5 | ≤ 0.5 | ≤ 0.5 | 0.5 to 2 | ≤ 0.5 | ≤ 0.5 | ≤ 0.5 | ≤ 0.5 | ≤ 0.5 | ≤ 0.5 | 0.5 to 2 | ≤ 0.5 | ≤ 0.5 | 0.5 to 2 | IC50 (HCC1428): ≤ 0.5 µM; IC50 (EVSA-T): 0.5 to 2 µM; IC50 (KMS-20): ≤ 0.5 µM; IC50 (KMS-11): ≤ 0.5 µM; IC50 (MM.1S): 0.5 to 2 µM; IC50 (NCI-H929): ≤ 0.5 µM; IC50 (OPM-2): ≤ 0.5 µM |
| CNC(=O)Nc1ccc2c(c1)CC[C@@]21OC(=O)N(CC(=O)N2[C@@H](C)CC[C@H]2c2ccc(F)c(F)c2)C1=O [Example 201] | ≤ 0.5 | ≤ 0.5 | ≤ 0.5 | ≤ 0.5 | ≤ 0.5 | 0.5 to 2 | ≤ 0.5 | ≤ 0.5 | ≤ 0.5 | 0.5 to 2 | ≤ 0.5 | ≤ 0.5 | ≤ 0.5 | ≤ 0.5 | ≤ 0.5 | ≤ 0.5 | 0.5 to 2 | ≤ 0.5 | ≤ 0.5 | 0.5 to 2 | IC50 (HCC1428): ≤ 0.5 µM; IC50 (EVSA-T): 0.5 to 2 µM; IC50 (KMS-20): ≤ 0.5 µM; IC50 (KMS-11): ≤ 0.5 µM; IC50 (MM.1S): 0.5 to 2 µM; IC50 (NCI-H929): ≤ 0.5 µM; IC50 (OPM-2): ≤ 0.5 µM |
| CNC(=O)Nc1cc2c(cc1F)[C@@]1(CC2)OC(=O)N(CC(=O)N2[C@@H](C)CC[C@H]2c2ccc(F)c(F)c2)C1=O [Example 389, 1-((R)-3′-(2-((2S,5S)-2-(3,4-difluorophenyl)-5-methylpyrrolidin-1-yl)-2-oxoethyl)-6-fluoro-2′,4′-dioxo-2,3-dihydrospiro[indene-1,5′-oxazolidine]-5-yl)-3-methylurea] | ≤ 0.5 | ≤ 0.5 | ≤ 0.5 | ≤ 0.5 | ≤ 0.5 | ≤ 0.5 | ≤ 0.5 | ≤ 0.5 | ≤ 0.5 | ≤ 0.5 | ≤ 0.5 | ≤ 0.5 | ≤ 0.5 | ≤ 0.5 | ≤ 0.5 | ≤ 0.5 | 0.5 to 2 | ≤ 0.5 | ≤ 0.5 | 0.5 to 2 | IC50 (HCC1428): ≤ 0.5 µM; IC50 (EVSA-T): 0.5 to 2 µM; IC50 (KMS-20): ≤ 0.5 µM; IC50 (KMS-11): ≤ 0.5 µM; IC50 (MM.1S): 0.5 to 2 µM; IC50 (NCI-H929): ≤ 0.5 µM; IC50 (OPM-2): ≤ 0.5 µM |
